Test results reported in PMC6321168, “Comparative Study on Excretive Characterization of Main Components in Herb Pair Notoginseng-Safflower and Single Herbs by LC–MS/MS” (Pharmaceutics, 2018).

Experiment: Fecal excretion study in rats after oral NS, SF or CNS (LC–MS/MS)
Assay type: in vivo
Conditions: rat feces
Procedure: The animal room was set at constant temperature of 20 ± 2 °C with humidity of 50 ± 20% and 12/12 h light/dark cycle.
Eighteen male rats were fasted for 12 h before starting the experiment. The rats were divided into three groups at random (n = 6) and received NS (60 mg/kg), SF (50 mg/kg), and NS (60 mg/kg) + SF (50 mg/kg), respectively, by oral gavage. The rats were placed in separate metabolic cages. The urine samples were collected at 0–2, 2–4, 4–6, 6–8, 8–12, 12–24, 24–36, 36–48, 48–72, 72–96, and 96–120 h. The feces samples were collected at 0–4, 4–8, 8–12, 12–24, 24–36, 36–48, 48–72, 72–96, and 96–120 h. The urine volume was recorded and the dry feces were measured for each collection period. Samples were stored at −80 °C until analysis.
Feces samples were homogenized in ultrapure water (1 g/15 mL), soaked for 30 min, ultrasonically extracted for 30 min and centrifuged at 9000 rpm for 8 min. An aliquot of 200 μL feces water extraction solution was mixed with 10 μL of IS and then extracted three times with water-saturated n-BuOH (150 μL). The upper organic phase was combined and evaporated to dryness using a ZLS-2 vacuum centrifugal concentrator. The residue was treated as the urine sample and a 1-μL aliquot was injected for LC–MS analysis.
Ultra fast liquid chromatography (UFLC) analysis was performed using a Shimadzu UFLC system (DGU-20A3R Degasser; LC-20AD pump; SIL-20AXR Autosampler; CTO-20AC Column Oven) (Nakagyo-Ku, Koyoto, Japan). […] Because of the different endogenous substances in the urine and feces samples, different elution gradients were used to alleviate the matrix effects for the analytes.
The mass spectrometric detection was performed on an ABSciex 4500 Qtrap mass spectrometer (ABSciex, Foster City, CA, USA) equipped with a negative electrospray ionization (ESI) interface using multiple reaction monitoring (MRM). The MS parameters were optimized under the selected ion monitoring conditions as follows: curtain gas, 35 psi; ionspray voltage, 4500 V; turbo gas temperature, 450 °C; GS1, 45 psi; GS2, 45 psi. All data were acquired and analyzed by Analyst software (Versions 1.6.2) from ABSciex.
The accumulative excretion percentage was calculated for each analyte as follows. Excretion at time (t) = [concentration of the analyte (ng/mL) at t] × total urine (or feces) volume (mL) at t. The cumulative excretion up to time t (mg) was expressed as a percent (%) cumulative excretion by dividing by the total amount of the analyte ingested (mg): % Cumulative Excretion = 100 × (Σt excretiont) total ingested.

concentration at 4 h (male, Sprague Dawley, oral CNS 110 mg/kg, 4 h): 1100 ± 1520 ng/mL
concentration at 8 h (male, Sprague Dawley, oral CNS 110 mg/kg, 8 h): 1710 ± 54 ng/mL
concentration at 12 h (male, Sprague Dawley, oral CNS 110 mg/kg, 12 h): 1110 ± 221 ng/mL
concentration at 24 h (male, Sprague Dawley, oral CNS 110 mg/kg, 24 h): 980 ± 138 ng/mL
concentration at 36 h (male, Sprague Dawley, oral CNS 110 mg/kg, 36 h): 959 ± 40 ng/mL
concentration at 48 h (male, Sprague Dawley, oral CNS 110 mg/kg, 48 h): 943 ± 49 ng/mL
concentration at 72 h (male, Sprague Dawley, oral CNS 110 mg/kg, 72 h): 324 ± 249 ng/mL
concentration at 96 h (male, Sprague Dawley, oral CNS 110 mg/kg, 96 h): 24 ± 24 ng/mL
concentration at 4 h (male, Sprague Dawley, oral NS 60 mg/kg, 4 h): 1510 ± 256 ng/mL
concentration at 8 h (male, Sprague Dawley, oral NS 60 mg/kg, 8 h): 473 ± 16 ng/mL
concentration at 12 h (male, Sprague Dawley, oral NS 60 mg/kg, 12 h): 1090 ± 88 ng/mL
concentration at 24 h (male, Sprague Dawley, oral NS 60 mg/kg, 24 h): 2040 ± 55 ng/mL
concentration at 36 h (male, Sprague Dawley, oral NS 60 mg/kg, 36 h): 2020 ± 54 ng/mL
concentration at 48 h (male, Sprague Dawley, oral NS 60 mg/kg, 48 h): 2080 ± 47 ng/mL
concentration at 72 h (male, Sprague Dawley, oral NS 60 mg/kg, 72 h): 116 ± 8 ng/mL
concentration at 96 h (male, Sprague Dawley, oral NS 60 mg/kg, 96 h): 23 ± 1 ng/mL
concentration at 120 h (male, Sprague Dawley, oral NS 60 mg/kg, 120 h): 22 ± 2 ng/mL
Accumulative excretion amount (oral CNS 110 mg/kg, 4 h): 14.286 ± 20.907 µg
Accumulative excretion percentage (oral CNS 110 mg/kg, 4 h): 0.474±0.681%
Excretion amount (oral CNS 110 mg/kg, 4 h): 14.286 ± 20.907 µg
Accumulative excretion amount (oral CNS 110 mg/kg, 8 h): 39.952 ± 21.244 µg
Accumulative excretion percentage (oral CNS 110 mg/kg, 8 h): 1.303±0.695%
Accumulative excretion amount (oral CNS 110 mg/kg, 12 h): 56.860 ± 20.559 µg
Excretion amount (oral CNS 110 mg/kg, 12 h): 16.908 ± 6.636 µg
Accumulative excretion amount (oral CNS 110 mg/kg, 24 h): 71.363 ± 24.096 µg
Accumulative excretion percentage (oral CNS 110 mg/kg, 24 h): 2.331±0.796%
Excretion amount (oral CNS 110 mg/kg, 24 h): 14.504 ± 4.143 µg
Accumulative excretion amount (oral CNS 110 mg/kg, 36 h): 85.729 ± 27.211 µg
Accumulative excretion percentage (oral CNS 110 mg/kg, 36 h): 2.802±0.894%
Excretion amount (oral CNS 110 mg/kg, 36 h): 14.365 ± 4.335 µg
Accumulative excretion amount (oral CNS 110 mg/kg, 48 h): 99.901 ± 30.374 µg
Accumulative excretion percentage (oral CNS 110 mg/kg, 48 h): 3.265±0.994%
Excretion amount (oral CNS 110 mg/kg, 48 h): 14.173 ± 4.533 µg
Accumulative excretion amount (oral CNS 110 mg/kg, 72 h): 105.113 ± 30.466 µg
Accumulative excretion percentage (oral CNS 110 mg/kg, 72 h): 3.431±0.996%
Excretion amount (oral CNS 110 mg/kg, 72 h): 5.212 ± 4.367 µg
Accumulative excretion amount (oral CNS 110 mg/kg, 96 h): 105.509 ± 30.482 µg
Accumulative excretion percentage (oral CNS 110 mg/kg, 96 h): 3.441±0.996%
Excretion amount (oral CNS 110 mg/kg, 96 h): 0.396 ± 0.402 µg
Accumulative excretion amount (oral CNS 110 mg/kg, 120 h): 105.509 ± 30.482 µg
Accumulative excretion percentage (oral CNS 110 mg/kg, 120 h): 3.442±0.994%
Accumulative excretion amount (oral NS 60 mg/kg, 4 h): 21.063 ± 5.410 µg
Accumulative excretion percentage (oral NS 60 mg/kg, 4 h): 0.612±0.145%
Excretion amount (oral NS 60 mg/kg, 4 h): 21.063 ± 5.410 µg
Accumulative excretion amount (oral NS 60 mg/kg, 8 h): 27.855 ± 7.375 µg
Accumulative excretion percentage (oral NS 60 mg/kg, 8 h): 0.798±0.216%
Excretion amount (oral NS 60 mg/kg, 8 h): 6.792 ± 2.122 µg
Accumulative excretion percentage (oral NS 60 mg/kg, 12 h): 1.244±0.343%
Excretion amount (oral NS 60 mg/kg, 12 h): 15.587 ± 4.879 µg
Accumulative excretion amount (oral NS 60 mg/kg, 24 h): 72.682 ± 20.662 µg
Accumulative excretion percentage (oral NS 60 mg/kg, 24 h): 2.071±0.592%
Excretion amount (oral NS 60 mg/kg, 24 h): 29.239 ± 8.754 µg
Accumulative excretion amount (oral NS 60 mg/kg, 36 h): 101.659 ± 29.524 µg
Accumulative excretion percentage (oral NS 60 mg/kg, 36 h): 2.904±0.845%
Excretion amount (oral NS 60 mg/kg, 36 h): 28.977 ± 8.942 µg
Accumulative excretion amount (oral NS 60 mg/kg, 48 h): 131.700 ± 39.092 µg
Accumulative excretion percentage (oral NS 60 mg/kg, 48 h): 3.751±1.111%
Excretion amount (oral NS 60 mg/kg, 48 h): 30.041 ± 9.594 µg
Accumulative excretion amount (oral NS 60 mg/kg, 72 h): 133.372 ± 39.629 µg
Accumulative excretion percentage (oral NS 60 mg/kg, 72 h): 3.801±1.132%
Excretion amount (oral NS 60 mg/kg, 72 h): 1.673 ± 0.554 µg
Accumulative excretion percentage (oral NS 60 mg/kg, 96 h): 3.814±1.133%
Excretion amount (oral NS 60 mg/kg, 96 h): 0.327 ± 0.104 µg
Accumulative excretion percentage (oral NS 60 mg/kg, 120 h): 3.824±1.132%
Excretion amount (oral NS 60 mg/kg, 120 h): 0.315 ± 0.110 µg
Structure (SMILES): CC(C)=CCC[C@](C)(O[C@@H]1O[C@H](CO)[C@@H](O)[C@H](O)[C@H]1O)[C@H]1CC[C@]2(C)[C@@H]1[C@H](O)C[C@@H]1[C@@]3(C)CC[C@H](O)C(C)(C)[C@@H]3[C@@H](O[C@@H]3O[C@H](CO)[C@@H](O)[C@H](O)[C@H]3O)C[C@]12C [ginsenoside Rg1]
